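Briefly, cells in 96-well plates were exposed to five compound concentrations for 48 h, and endpoints were estimated by linear interpolation. At the TGI there is no net growth.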
Columns and labels:
Assay in all cases: NCI anticancer screen, dose series, 48 h
SNB-75 CNS = system: SNB-75 CNS
786-0 renal = system: 786-0 renal
OVCAR-8 ovarian = system: OVCAR-8 ovarian
NCI-H23 lung = system: NCI-H23 lung
MALME-3M melanoma = system: MALME-3M melanoma
NCI-H460 lung = system: NCI-H460 lung
NCI-H226 lung = system: NCI-H226 lung
COLO 205 colon = system: COLO 205 colon
SF-268 CNS = system: SF-268 CNS
EKVX NSCLC = system: EKVX NSCLC
SK-OV-3 ovarian = system: SK-OV-3 ovarian
T-47D breast = system: T-47D breast
SF-295 CNS = system: SF-295 CNS
IGROV1 ovarian = system: IGROV1 ovarian
HCT-116 colon = system: HCT-116 colon
UO-31 renal = system: UO-31 renal
ACHN renal = system: ACHN renal
MDA-MB-435 = system: MDA-MB-435
RPMI-8226 leukemia = system: RPMI-8226 leukemia
SR leukemia = system: SR leukemia
TK-10 renal = system: TK-10 renal
OVCAR-5 ovarian = system: OVCAR-5 ovarian
K-562 leukemia = system: K-562 leukemia
SW-620 colon = system: SW-620 colon
U251 CNS = system: U251 CNS
SNB-19 CNS = system: SNB-19 CNS
UACC-62 melanoma = system: UACC-62 melanoma
HOP-62 NSCLC = system: HOP-62 NSCLC
HCC-2998 colon = system: HCC-2998 colon
HL-60(TB) leukemia = system: HL-60(TB) leukemia
OVCAR-3 ovarian = system: OVCAR-3 ovarian
M14 melanoma = system: M14 melanoma
HOP-92 NSCLC = system: HOP-92 NSCLC
SK-MEL-5 melanoma = system: SK-MEL-5 melanoma
DU-145 prostate = system: DU-145 prostate
SK-MEL-28 melanoma = system: SK-MEL-28 melanoma
OVCAR-4 ovarian = system: OVCAR-4 ovarian
A498 renal = system: A498 renal
MDA-MB-231 breast = system: MDA-MB-231 breast
NCI/ADR-RES ovarian = system: NCI/ADR-RES ovarian
UACC-257 melanoma = system: UACC-257 melanoma
CCRF-CEM leukemia = system: CCRF-CEM leukemia
HCT-15 colon = system: HCT-15 colon
PC-3 prostate = system: PC-3 prostate
HT29 colon = system: HT29 colon
MCF7 breast = system: MCF7 breast
SN12C renal = system: SN12C renal
BT-549 breast = system: BT-549 breast
MOLT-4 leukemia = system: MOLT-4 leukemia
A549 NSCLC = system: A549 NSCLC

Measured: TGI

COc1ccc(C2Oc3c(cccc3-c3c(-c4ccc(O)cc4)oc4cc(O)cc(O)c4c3=O)C(=O)C2O)cc1O (stereo not given)
> 100 µM: all assays above

Source: PubChem BioAssay (NCI)
